Source: patent US20260217730A1, “PROTEOLYSIS TARGETING CHIMERA COMPOUND” (BEIJING TIDE PHARMACEUTICAL CO., LTD., priority 2023, published 2026)

Columns and labels:
SHP2 = molecular target: T1, SHP2 (Homo sapiens, UniProt Q06124); experiment: Western blot, degradation of SHP2 in vitro; format: cell-based; settings: degradation of SHP2 in SUM159 cells, 24 hours with compound
T1 construct: endogenous in cells; host or cells: SUM159 triple-negative breast cancer cells
T1 sequence (Q06124 1-593): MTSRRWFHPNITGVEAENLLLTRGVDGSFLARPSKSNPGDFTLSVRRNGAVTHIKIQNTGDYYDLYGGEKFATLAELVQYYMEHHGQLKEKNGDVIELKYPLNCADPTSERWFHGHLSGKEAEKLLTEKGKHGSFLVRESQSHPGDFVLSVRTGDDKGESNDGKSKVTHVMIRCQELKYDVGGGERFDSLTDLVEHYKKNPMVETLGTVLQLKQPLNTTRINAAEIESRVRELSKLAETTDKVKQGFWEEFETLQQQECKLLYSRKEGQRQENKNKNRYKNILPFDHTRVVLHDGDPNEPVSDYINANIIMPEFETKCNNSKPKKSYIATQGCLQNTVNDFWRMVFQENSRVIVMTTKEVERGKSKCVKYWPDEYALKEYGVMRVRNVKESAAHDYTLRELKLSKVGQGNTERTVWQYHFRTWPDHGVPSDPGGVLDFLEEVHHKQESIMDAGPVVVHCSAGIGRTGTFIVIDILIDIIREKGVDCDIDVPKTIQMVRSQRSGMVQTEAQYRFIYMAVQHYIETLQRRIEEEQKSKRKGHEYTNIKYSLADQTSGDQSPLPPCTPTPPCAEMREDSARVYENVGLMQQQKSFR
Procedure: 1. The Biological Activity of Compounds was Determined by Western Blot Method Using the Following Method:
Reagents: Complete 1640 medium was purchased from Gibco. Fetal bovine serum was purchased from ThermoFisher. Trypsin was produced by ThermoFisher. SHP-2 antibody was produced by CST.
(§1) Cell line: SUM159 triple-negative breast cancer cell line was established by Rovera.
Method for assay: Cells growth in the logarithmic phase were collected and suspended in a 1640 medium containing 10% fetal bovine serum, which was then gently pipetted into a single-cell suspension. Viable cells were counted under microscope. 9 mL of the cell suspension was seeded and cultured in a 10 cm culture dish at a final concentration of 2×10^5 cells/mL. After cells were pre-cultured for 24 hours at 37° C. and 5% CO2, different concentrations of solutions of the compounds of the present disclosure in DMSO were added (the final concentration of DMSO was no more than 0.5%), and the negative control group was added with the same volume of DMSO alone. After cultured for another 24 hours, all cells were collected and washed with PBS. The cells were lysed with RIPA lysis buffer, and the lysates were collected into a 1.7 mL centrifuge tube. The proteins were fully denatured after heating in the metal bath at 95° C. for 10 minutes. After loading the samples onto the gel for Western blotting, electrophoresis was performed at a constant voltage of 100V until the band of bromophenol blue reached the terminal point. The proteins were transferred onto a cellulose acetate membrane using the wet transfer method at a constant current of 300-500 mA for 45 minutes, and the proteins were blocked with 5% BSA at room temperature for 1-2 hours. The proteins were incubated with primary antibody diluted 1:500 to 1:8000 at room temperature for 2 hours, and then washed three times. Subsequently, the proteins were incubated with secondary antibody at room temperature for 1 hour. The detection of proteins was performed using ultrasensitive ECL luminescent liquid such as Enlight, and signals were captured using an automatic X-ray film developing machine. For the test results, see the in vitro Western Blot experiment of Example 1 and the in vitro Western Blot experiment of Example 3.
The compounds of the present disclosure have good in vitro anti-solid tumor and anti-blood tumor activities and have low toxicity to normal cells.

[1] = system: SUM159 triple-negative breast cancer cell line; experiment: CCK8 method, cell viability; format: cell-based; settings: SUM159 cells, 72 hours, CCK8 absorbance
Procedure: 2. The Biological Activity of Compounds was Determined by CCK8 Method Using the Following Method:
Reagents: Complete RPMI 1640 medium was purchased from Gibco. Fetal bovine serum was purchased from ThermoFisher. Trypsin was produced by ThermoFisher. SHP-2 antibody was produced by CST. CCK8 was produced by abcam.
as §1
Method for assay: Cells growth in the logarithmic phase were collected and suspended in a RPMI 1640 medium containing 10% fetal bovine serum, which was then gently pipetted into a single-cell suspension. Viable cells were counted under microscope. The cells were seeded into a 96-well plate at a density of 3-6*10^3 cells per well and cultured in an incubator for 24 hours. Test compounds were diluted in multiples, and then the cell culture supernatant was added. The cells were cultured for another 72 hours, and 10 μL of CCK8 detection solution was added to each well. After incubating for 1-4 hours, the absorbance was measured using a microplate reader.

PAMPA experiment = format: in vitro ADME; settings: 1.8% lecithin membrane, drug test solution 10 μM, 37° C., 16 hours
Procedure: Reagents: lecithin, n-dodecane, HEPES, dimethyl sulfoxide (DMSO), acetonitrile
Instrument and equipment: Multiscreen 96-well plate (up Merck Millipore), Multiscreen 96-well plate (down Merck Millipore), electronic analytical balance, constant temperature incubator, high performance liquid chromatography-mass spectrometry (LC-MS)
Method for operation: Preparation of PAMPA artificial membrane: about 18 mg of lecithin was weighed accurately, and placed into a 1.5 mL EP tube. 1 mL of n-dodecane was added. The mixture was dissolved by ultrasonication, and then thoroughly mixed to obtain a 1.8% lecithin membrane.
The upper layer of the PAMPA model was the plate lid, the middle layer was the 96-well filter plate (donor plate), and the lower layer was the accepter plate. 5 μL of the above 1.8% lecithin membrane was added to the filter membrane of the donor plate, and then 150 μL of the drug test solution (10 μM) was added. 300 μL of HEPES solution was added to each well of the accepter plate (completed within 10 minutes). The donor plate was slowly placed onto the accepter plate and incubated at 37° C. for 16 hours.
LC-MS detection: 100 μL of the positive control and the test compound was weighed respectively, to which 100 μL of acetonitrile-DMSO solution [acetonitrile-DMSO (4:1)] was added. The mixture was mixed well, and detected by LC-MS at OH and 16H. The corresponding molecular ion peak was extracted and the peak area was obtained; After the PAMPA model was incubated at 37° C. for 16 h, 100 μL of the test solution in the donor plate and the accepter plate was weighed respectively, to which 100 μL of acetonitrile-DMSO solution [acetonitrile-DMSO (4:1)] was added. The mixture was mixed well, and detected by LC-MS. The corresponding molecular ion peak was extracted, the peak area was obtained, and the concentration was calculated.

Row | DC50 (SHP2) [nM] | IC50 [1] [nM] | PAMPA (−Log Pe) (PAMPA experiment) | Structure (SMILES)
1 | 210 | 28.8 | 6.71 | O=C1CC(=O)OCN2C(=O)CCC(C2=O)N2Cc3cc(ccc3C2=O)OCCOC/C=C\COCCOc2ccc(c(Cl)c2)-c2cc(=O)c3cc(I)c(cc3o2)CO1 (centres unmarked) [Example 1]
2 | – | 1000 | 6.0 | O=C1CCC2C(=O)N1COP(=O)(O)OCc1cc3oc(cc(=O)c3cc1I)-c1ccc(cc1Cl)OCCOC/C=C\COCCOc1ccc3c(c1)C(=O)N2C3=O (centres unmarked) [Example 2]
3 | 37 | 7.43 | 5.94 | O=C1OCc2cc3oc(cc(=O)c3cc2I)-c2ccc(cc2Cl)OCCOC/C=C\COCCOc2ccc3c(c2)CN(C3=O)C2CCC(=O)N(COC1=O)C2=O (centres unmarked) [Example 3]
4 | – | 718 | 6.11 | O=C1CC(=O)OCN2C(=O)CCC(C2=O)N2Cc3cc(ccc3C2=O)OCCCC/C=C\CCCCOc2ccc(c(Cl)c2)-c2cc(=O)c3ccc(cc3o2)CO1 (centres unmarked) [Example 4]
5 | 500 | 200 | 5.78 | O=C1OCc2cc3oc(cc(=O)c3cc2I)-c2ccc(cc2Cl)OCCOC/C=C\COCCOc2ccc3c(c2)CN(C3=O)C2CCC(=O)N(COC(=O)c3cccc1c3)C2=O (centres unmarked) [Example 5]
6 | 10 | > 5000 | 8.55 | O=C1OCc2ccc3c(=O)cc(oc3c2)-c2ccc(cc2Cl)OCCCC/C=C/CCCCOc2ccc3c(c2)CN(C3=O)C2CCC(=O)N(COC(=O)c3cccc1c3)C2=O (centres unmarked) [Example 6]
7 | 188 | 23.1 | – | O=C1CC(=O)OCN2C(=O)CCC(C2=O)N2Cc3cc(ccc3C2=O)OCCOC/C=C\COCCOc2ccc(c(Cl)c2)-c2cc(=O)c3ccc(cc3o2)CO1 (centres unmarked) [Example 7]
8 | – | 5.33 | 4.68 | N[C@H]1CCC(=O)OCc2ccc3c(=O)cc(oc3c2)-c2ccc(cc2Cl)OCCOC/C=C/COCCOc2ccc3c(c2)CN(C3=O)C2CCC(=O)N(COC1=O)C2=O (some centres unmarked) [Example 8]

Row | Structure (SMILES) | DC50 (SHP2) [nM] | IC50 [1] [nM] | PAMPA (−Log Pe) (PAMPA experiment)
9 | CN1CC(=O)OCc2ccc3c(=O)cc(oc3c2)-c2ccc(cc2Cl)OCCOC/C=C/COCCOc2ccc3c(c2)CN(C3=O)C2CCC(=O)N(COC(=O)C1)C2=O (centres unmarked) [Example 9] | 4.21 | 2.39 | 5.52
10 | CN1CC(=O)OCc2ccc3c(=O)cc(oc3c2)-c2ccc(cc2Cl)OCCOCCCCOCCOc2ccc3c(c2)CN(C3=O)C2CCC(=O)N(COC(=O)C1)C2=O (centres unmarked) [Example 10] | 5.94 | 3.5 | 5.56
